Test results: patent publication US12630501B2, “Anti-fibrotic compounds and use thereof” (HADASIT MEDICAL RESEARCH SERVICES AND DEVELOPMENT LTD., priority 2019, dated 2026)

Tests used:
Ku70 = experiment: Ku70-IP and immunoblots of myofibroblasts isolated from lungs of BLM-treated mice given CMH; type: in vivo, mouse; details: CMH 30 μM OA day 6, sacrifice day 14
Description: Oropharyngeal aspiration (OA) and induction of lung fibrosis in mice Oropharyngeal aspiration of BLM (OA-BLM) was performed as detailed in Golan-Gerstl et al., Am. J. Respir. Cell Mol. Biol. 36: 270-275, 2007. Lung fibrosis was assessed via semi-quantitative morphological index (Wallach-Dayan et al., PNAS USA 104: 20460-20465, 2007). Lung collagen was measured using a Sircol Collagen Assay kit (Biocolor, Belfast, Northern Ireland), and standard protocol of trichrome staining. Isolation of mouse lung myofibroblasts Myofibroblast isolation and culture was performed as described in Golan-Gerstl et al., Am. J. Respir. Cell Mol. Biol. 36: 270-275, 2007; and Wallach-Dayan et al., PNAS USA 104: 20460-20465, 2007.
Immunoprecipitation and immunoblotting Standard protocols were performed as described in Golan-Gerstl et al., Am. J. Respir. Cell Mol. Biol. 47: 271-279, 2012.
CMH (30 μM) or control vehicle 4% DMSO were administered into WT mice by a second OA on day 6 of OA-BLM (0.05 mU), or control-saline (FIG. 6A). Similar to SIRT1^y/y mice, BLM-treated mice and control saline-treated mice (FIG. 6B) that were exposed to CMH vs. vehicle alone, had low SIRT1 and FLIP expression in lung sections. Myofibroblasts isolated from lungs of BLM-treated mice had decreased Ku70 binding to SIRT1 from 1.2 to 0.6 (FIG. 6C), increased Ku70 acetylation from an OD of 0.1 to 0.91 (FIG. 6D), and decreased Ku70/FLIP complex from an OD of 2.43 to 1.55 (FIG. 6E). Compared to vehicle, CMH-treated mice reduced H&E and collagen-trichrome staining (FIG. 6F, upper and lower panels, respectively), SMI grade (average SMI from 2 to 1.1, FIG. 6G), and collagen in Sircol assay (from 200 μg to only 50 μg, FIG. 6H). Thus, In vivo inhibition of SIRT1 activity, FLIP expression, and lung fibrosis were detected in CMH-BLM-treated mice and attenuation of deacetylation activity on Ku70, a decrease in Ku70/FLIP complex, and FLIP expression levels were detected in myofibroblasts isolated from lungs of CMH-BLM-treated mice. […]

HDAC6 = target: T1, HDAC6 (Homo sapiens, UniProt Q9UBN7); details: prostate cancer cells; cited from earlier work
T1 sequence (Q9UBN7 1-1215): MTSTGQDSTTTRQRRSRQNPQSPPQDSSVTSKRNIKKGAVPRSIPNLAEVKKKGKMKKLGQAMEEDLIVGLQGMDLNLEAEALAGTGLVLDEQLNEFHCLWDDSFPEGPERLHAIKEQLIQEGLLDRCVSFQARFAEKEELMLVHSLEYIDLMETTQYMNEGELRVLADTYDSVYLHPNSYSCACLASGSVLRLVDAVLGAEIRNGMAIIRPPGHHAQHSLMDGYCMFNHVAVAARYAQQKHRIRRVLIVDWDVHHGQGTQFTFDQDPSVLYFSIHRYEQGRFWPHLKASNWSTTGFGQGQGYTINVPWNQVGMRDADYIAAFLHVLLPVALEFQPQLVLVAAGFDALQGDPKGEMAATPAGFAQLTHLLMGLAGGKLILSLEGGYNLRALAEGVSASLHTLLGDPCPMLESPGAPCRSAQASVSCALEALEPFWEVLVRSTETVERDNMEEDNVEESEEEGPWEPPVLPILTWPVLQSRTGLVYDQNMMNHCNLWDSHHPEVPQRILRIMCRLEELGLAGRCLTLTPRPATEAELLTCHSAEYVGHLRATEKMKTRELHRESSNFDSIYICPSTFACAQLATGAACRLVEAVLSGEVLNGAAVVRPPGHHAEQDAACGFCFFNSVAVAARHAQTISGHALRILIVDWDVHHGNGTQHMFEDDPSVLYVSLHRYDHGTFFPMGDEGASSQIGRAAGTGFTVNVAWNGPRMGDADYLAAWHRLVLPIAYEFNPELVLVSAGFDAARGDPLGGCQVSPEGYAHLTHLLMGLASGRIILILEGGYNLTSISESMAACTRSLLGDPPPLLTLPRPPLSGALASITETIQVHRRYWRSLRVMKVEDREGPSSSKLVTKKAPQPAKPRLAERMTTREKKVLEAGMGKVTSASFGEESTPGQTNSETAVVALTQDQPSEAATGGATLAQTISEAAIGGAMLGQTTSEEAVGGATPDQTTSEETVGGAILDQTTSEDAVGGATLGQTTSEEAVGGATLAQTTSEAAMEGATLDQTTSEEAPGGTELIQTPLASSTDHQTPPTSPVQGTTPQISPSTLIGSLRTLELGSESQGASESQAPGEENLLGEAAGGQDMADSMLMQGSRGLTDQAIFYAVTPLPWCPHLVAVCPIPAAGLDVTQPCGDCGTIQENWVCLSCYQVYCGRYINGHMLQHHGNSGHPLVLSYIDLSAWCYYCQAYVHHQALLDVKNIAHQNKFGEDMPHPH

For `Cc1cc(Cl)ccc1OCCCC(=O)NO` [CMH, 4-(4-chloro-2-methylphenoxy)-N-hydroxybutanamide], the “Ku70 acetylation OD (Ku70-IP, pan-acetyl IB)” value (Ku70; from 0.1) was 0.91 OD, the “Ku70 binding to SIRT1 (Ku70-IP, SIRT1 IB)” value (Ku70; from 1.2) was 0.6 and the “Ku70/FLIP complex OD (Ku70-IP, FLIP IB)” value (Ku70; from 2.43) was 1.55 OD. For the same molecule, the “Inhibition of HDAC6” value (HDAC6) was “Selective inhibition”.
